Assay results reported in PubChem BioAssay (NCI).
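Grown in 96-well plates, cells were treated for 48 hours with each compound at five concentrations. Insufficient inhibition: endpoint recorded as highest concentration tested. TGI is the concentration that stops growth completely.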

How the values were obtained:
Assay in all cases: NCI anticancer screen, dose series, 48 h
[1] = tested on: MOLT-4 leukemia
[2] = tested on: HT29 colon
[3] = tested on: HCT-15 colon
[4] = tested on: COLO 205 colon
[5] = tested on: SF-268 CNS
[6] = tested on: UACC-62 melanoma
[7] = tested on: A498 renal
[8] = tested on: MDA-MB-435
[9] = tested on: SN12C renal
[10] = tested on: MALME-3M melanoma
[11] = tested on: EKVX NSCLC
[12] = tested on: UO-31 renal
[13] = tested on: SK-MEL-5 melanoma
[14] = tested on: ACHN renal
[15] = tested on: OVCAR-8 ovarian
[16] = tested on: KM12 colon
[17] = tested on: HL-60(TB) leukemia
[18] = tested on: NCI/ADR-RES ovarian
[19] = tested on: T-47D breast
[20] = tested on: CAKI-1 renal
[21] = tested on: SK-MEL-2 melanoma
[22] = tested on: SW-620 colon
[23] = tested on: SF-539 CNS
[24] = tested on: SF-295 CNS
[25] = tested on: SK-MEL-28 melanoma
[26] = tested on: DU-145 prostate
[27] = tested on: PC-3 prostate
[28] = tested on: TK-10 renal
[29] = tested on: SNB-19 CNS
[30] = tested on: NCI-H522 lung
[31] = tested on: IGROV1 ovarian
[32] = tested on: MDA-N
[33] = tested on: OVCAR-4 ovarian
[34] = tested on: HCT-116 colon
[35] = tested on: MCF7 breast
[36] = tested on: SK-OV-3 ovarian
[37] = tested on: BT-549 breast
[38] = tested on: U251 CNS
[39] = tested on: A549 NSCLC
[40] = tested on: CCRF-CEM leukemia
[41] = tested on: OVCAR-3 ovarian
[42] = tested on: HOP-92 NSCLC
[43] = tested on: MDA-MB-231 breast
[44] = tested on: 786-0 renal
[45] = tested on: NCI-H460 lung
[46] = tested on: HOP-62 NSCLC
[47] = tested on: M14 melanoma
[48] = tested on: LOX IMVI melanoma
[49] = tested on: HS 578T breast
[50] = tested on: SR leukemia
[51] = tested on: OVCAR-5 ovarian
[52] = tested on: K-562 leukemia
[53] = tested on: UACC-257 melanoma
[54] = tested on: NCI-H23 lung
[55] = tested on: RPMI-8226 leukemia
[56] = tested on: HCC-2998 colon
[57] = tested on: NCI-H226 lung

`Cc1cc(C)c2c(n1)S(=O)(=O)N(CCCN1CCN(c3cccc(Cl)c3)CC1)/C(=C(\O)c1ccccc1)C2=O` was tested, and the TGI [1] was 44.4 µM, the TGI [2] was > 100 µM and the TGI [3] was > 100 µM. The TGI [4] was 36.9 µM, the TGI [5] was > 100 µM and the TGI [6] was > 100 µM. For the same molecule, the TGI [7] was > 100 µM, the TGI [8] was > 100 µM and the TGI [9] was 93.4 µM. The TGI [10] was > 100 µM, the TGI [11] was 82.7 µM and the TGI [12] was 74 µM. For the same molecule, the TGI [13] was 60.2 µM, the TGI [14] was > 100 µM and the TGI [15] was > 100 µM. For the same molecule, the TGI [16] was > 100 µM, the TGI [17] was 71 µM and the TGI [18] was > 100 µM. For the same molecule, the TGI [19] was > 100 µM, the TGI [20] was 62.2 µM and the TGI [21] was > 100 µM. For the same molecule, the TGI [22] was > 100 µM, the TGI [23] was > 100 µM and the TGI [24] was 95.9 µM. The TGI [25] was > 100 µM, the TGI [26] was > 100 µM and the TGI [27] was > 100 µM. For the same molecule, the TGI [28] was 78.5 µM, the TGI [29] was > 100 µM and the TGI [30] was > 100 µM. For the same molecule, the TGI [31] was > 100 µM, the TGI [32] was > 100 µM and the TGI [33] was 88.8 µM. For the same molecule, the TGI [34] was 92.5 µM, the TGI [35] was > 100 µM and the TGI [36] was > 100 µM. For the same molecule, the TGI [37] was > 100 µM, the TGI [38] was > 100 µM and the TGI [39] was > 100 µM. For the same molecule, the TGI [40] was > 100 µM, the TGI [41] was > 100 µM and the TGI [42] was 77.4 µM. For the same molecule, the TGI [43] was > 100 µM, the TGI [44] was > 100 µM and the TGI [45] was 52.5 µM. For the same molecule, the TGI [46] was > 100 µM, the TGI [47] was > 100 µM and the TGI [48] was > 100 µM. The TGI [49] was > 100 µM, the TGI [50] was 68.9 µM and the TGI [51] was > 100 µM. For the same molecule, the TGI [52] was > 100 µM, the TGI [53] was 55.4 µM and the TGI [54] was 89.1 µM.

In the case of `C=C1CCCC(C)(C)[C@H]1C/C=C1\CCOC1=O`, the TGI [1] is reported as 38.9 µM, the TGI [2] is reported as 28 µM and the TGI [3] is reported as > 100 µM. For the same molecule, the TGI [4] was 33.4 µM, the TGI [5] was 23.9 µM and the TGI [6] was > 100 µM. For the same molecule, the TGI [7] was 31 µM, the TGI [8] was 22 µM and the TGI [9] was 35.2 µM. The TGI [10] was 26.9 µM, the TGI [55] was > 100 µM and the TGI [11] was 30 µM. The TGI [12] was 29.6 µM, the TGI [13] was 21.8 µM and the TGI [14] was 29.4 µM. The TGI [15] was 38.5 µM, the TGI [16] was 31.8 µM and the TGI [17] was 43.8 µM. For the same molecule, the TGI [18] was 26.8 µM, the TGI [19] was > 100 µM and the TGI [20] was 30.2 µM. The TGI [21] was > 100 µM, the TGI [22] was 35.2 µM and the TGI [23] was 34.5 µM. The TGI [56] was > 100 µM, the TGI [24] was 30.8 µM and the TGI [25] was 29.6 µM. The TGI [26] was 26.2 µM, the TGI [27] was 31.5 µM and the TGI [28] was 34.5 µM. It also gave a TGI [29] of 30.7 µM, a TGI [30] of 40.4 µM and a TGI [31] of 28.8 µM. It also gave a TGI [32] of 33.3 µM, a TGI [33] of 26.8 µM and a TGI [34] of 25.8 µM. For the same molecule, the TGI [35] was 25.4 µM, the TGI [36] was 57 µM and the TGI [37] was 26.9 µM. It also gave a TGI [38] of 30.4 µM, a TGI [39] of 26.6 µM and a TGI [57] of 24.9 µM. The TGI [40] was > 100 µM, the TGI [41] was 34.8 µM and the TGI [42] was 26.6 µM. The TGI [43] was 31.6 µM, the TGI [44] was 28.7 µM and the TGI [45] was 24.4 µM. The TGI [46] was 39.9 µM, the TGI [47] was 34 µM and the TGI [48] was 23.6 µM. The TGI [49] was 44.3 µM, the TGI [50] was > 100 µM and the TGI [52] was 26.5 µM. For the same molecule, the TGI [53] was 24.5 µM and the TGI [54] was 39 µM.
